# From PubChem BioAssay (NCI)
#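 In this assay, cells in 96-well plates receive the compound at five concentrations for 48 hours. Endpoints are linearly interpolated between the surrounding concentrations. TGI marks complete inhibition of growth.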
# Key:
# Experiment in all cases: DTP human tumour cell line panel, 48 h
# 786-0 renal = system: 786-0 renal
# A549 NSCLC = system: A549 NSCLC
# ACHN renal = system: ACHN renal
# CAKI-1 renal = system: CAKI-1 renal
# CCRF-CEM leukemia = system: CCRF-CEM leukemia
# COLO 205 colon = system: COLO 205 colon
# DU-145 prostate = system: DU-145 prostate
# EKVX NSCLC = system: EKVX NSCLC
# HCC-2998 colon = system: HCC-2998 colon
# HCT-116 colon = system: HCT-116 colon
# HCT-15 colon = system: HCT-15 colon
# HL-60(TB) leukemia = system: HL-60(TB) leukemia
# HOP-62 NSCLC = system: HOP-62 NSCLC
# HOP-92 NSCLC = system: HOP-92 NSCLC
# HS 578T breast = system: HS 578T breast
# HT29 colon = system: HT29 colon
# IGROV1 ovarian = system: IGROV1 ovarian
# K-562 leukemia = system: K-562 leukemia
# KM12 colon = system: KM12 colon
# LOX IMVI melanoma = system: LOX IMVI melanoma
# M14 melanoma = system: M14 melanoma
# MCF7 breast = system: MCF7 breast
# MDA-MB-231 breast = system: MDA-MB-231 breast
# MDA-MB-435 = system: MDA-MB-435
# MDA-N = system: MDA-N
# MOLT-4 leukemia = system: MOLT-4 leukemia
# NCI-H226 lung = system: NCI-H226 lung
# NCI-H23 lung = system: NCI-H23 lung
# NCI-H460 lung = system: NCI-H460 lung
# NCI-H522 lung = system: NCI-H522 lung
# NCI/ADR-RES ovarian = system: NCI/ADR-RES ovarian
# OVCAR-3 ovarian = system: OVCAR-3 ovarian
# OVCAR-4 ovarian = system: OVCAR-4 ovarian
# OVCAR-5 ovarian = system: OVCAR-5 ovarian
# OVCAR-8 ovarian = system: OVCAR-8 ovarian
# PC-3 prostate = system: PC-3 prostate
# RPMI-8226 leukemia = system: RPMI-8226 leukemia
# RXF 393 renal = system: RXF 393 renal
# SF-268 CNS = system: SF-268 CNS
# SF-295 CNS = system: SF-295 CNS
# SF-539 CNS = system: SF-539 CNS
# SK-MEL-2 melanoma = system: SK-MEL-2 melanoma
# SK-MEL-28 melanoma = system: SK-MEL-28 melanoma
# SK-MEL-5 melanoma = system: SK-MEL-5 melanoma
# SK-OV-3 ovarian = system: SK-OV-3 ovarian
# SN12C renal = system: SN12C renal
# SNB-19 CNS = system: SNB-19 CNS
# SNB-75 CNS = system: SNB-75 CNS
# SR leukemia = system: SR leukemia
# SW-620 colon = system: SW-620 colon
# T-47D breast = system: T-47D breast
# TK-10 renal = system: TK-10 renal
# U251 CNS = system: U251 CNS
# UACC-257 melanoma = system: UACC-257 melanoma
# UACC-62 melanoma = system: UACC-62 melanoma
# UO-31 renal = system: UO-31 renal
# MALME-3M melanoma = system: MALME-3M melanoma
structure (smiles),measurement,setting,value
Cc1ccc(S(=O)(=O)NC2C(=O)c3ccccc3C(=O)C2n2ccnc2)cc1 (stereo not given),TGI,786-0 renal,32.8 µM
same,TGI,A549 NSCLC,> 100 µM
same,TGI,ACHN renal,> 100 µM
same,TGI,CAKI-1 renal,> 100 µM
same,TGI,CCRF-CEM leukemia,52.9 µM
same,TGI,COLO 205 colon,> 100 µM
same,TGI,DU-145 prostate,30.7 µM
same,TGI,EKVX NSCLC,> 100 µM
same,TGI,HCC-2998 colon,> 100 µM
same,TGI,HCT-116 colon,53.1 µM
same,TGI,HCT-15 colon,> 100 µM
same,TGI,HL-60(TB) leukemia,46.4 µM
same,TGI,HOP-62 NSCLC,> 100 µM
same,TGI,HOP-92 NSCLC,> 100 µM
same,TGI,HS 578T breast,> 100 µM
same,TGI,HT29 colon,> 100 µM
same,TGI,IGROV1 ovarian,> 100 µM
same,TGI,K-562 leukemia,> 100 µM
same,TGI,KM12 colon,> 100 µM
same,TGI,LOX IMVI melanoma,25 µM
same,TGI,M14 melanoma,> 100 µM
same,TGI,MCF7 breast,> 100 µM
same,TGI,MDA-MB-231 breast,29.5 µM
same,TGI,MDA-MB-435,33 µM
same,TGI,MDA-N,29 µM
same,TGI,MOLT-4 leukemia,80.8 µM
same,TGI,NCI-H226 lung,> 100 µM
same,TGI,NCI-H23 lung,> 100 µM
same,TGI,NCI-H460 lung,> 100 µM
same,TGI,NCI-H522 lung,5.77 µM
same,TGI,NCI/ADR-RES ovarian,> 100 µM
same,TGI,OVCAR-3 ovarian,> 100 µM
same,TGI,OVCAR-4 ovarian,> 100 µM
same,TGI,OVCAR-5 ovarian,> 100 µM
same,TGI,OVCAR-8 ovarian,> 100 µM
same,TGI,PC-3 prostate,> 100 µM
same,TGI,RPMI-8226 leukemia,> 100 µM
same,TGI,RXF 393 renal,> 100 µM
same,TGI,SF-268 CNS,> 100 µM
same,TGI,SF-295 CNS,> 100 µM
same,TGI,SF-539 CNS,> 100 µM
same,TGI,SK-MEL-2 melanoma,> 100 µM
same,TGI,SK-MEL-28 melanoma,> 100 µM
same,TGI,SK-MEL-5 melanoma,> 100 µM
same,TGI,SK-OV-3 ovarian,> 100 µM
same,TGI,SN12C renal,28.3 µM
same,TGI,SNB-19 CNS,> 100 µM
same,TGI,SNB-75 CNS,> 100 µM
same,TGI,SR leukemia,> 100 µM
same,TGI,SW-620 colon,> 100 µM
same,TGI,T-47D breast,38.8 µM
same,TGI,TK-10 renal,> 100 µM
same,TGI,U251 CNS,> 100 µM
same,TGI,UACC-257 melanoma,> 100 µM
same,TGI,UACC-62 melanoma,> 100 µM
same,TGI,UO-31 renal,> 100 µM
CC(C)=CCC/C(C)=C\CC/C(C)=C/CO,TGI,786-0 renal,31.1 µM
same,TGI,A549 NSCLC,> 100 µM
same,TGI,ACHN renal,70.7 µM
same,TGI,CAKI-1 renal,> 10 µM
same,TGI,CCRF-CEM leukemia,43.7 µM
same,TGI,COLO 205 colon,> 100 µM
same,TGI,DU-145 prostate,> 100 µM
same,TGI,EKVX NSCLC,> 100 µM
same,TGI,HCC-2998 colon,43.1 µM
same,TGI,HCT-116 colon,36.9 µM
same,TGI,HCT-15 colon,> 100 µM
same,TGI,HL-60(TB) leukemia,35.4 µM
same,TGI,HOP-62 NSCLC,40.3 µM
same,TGI,HOP-92 NSCLC,22.7 µM
same,TGI,HS 578T breast,67.9 µM
same,TGI,HT29 colon,37.6 µM
same,TGI,IGROV1 ovarian,55.9 µM
same,TGI,K-562 leukemia,42.2 µM
same,TGI,KM12 colon,> 100 µM
same,TGI,LOX IMVI melanoma,> 10 µM
same,TGI,M14 melanoma,37.2 µM
same,TGI,MALME-3M melanoma,32.3 µM
same,TGI,MCF7 breast,38.2 µM
same,TGI,MDA-MB-231 breast,> 100 µM
same,TGI,MDA-MB-435,38.3 µM
same,TGI,MDA-N,> 100 µM
same,TGI,MOLT-4 leukemia,42.9 µM
same,TGI,NCI-H226 lung,> 100 µM
same,TGI,NCI-H23 lung,62.2 µM
same,TGI,NCI-H460 lung,> 10 µM
same,TGI,NCI-H522 lung,27.2 µM
same,TGI,NCI/ADR-RES ovarian,42.6 µM
same,TGI,OVCAR-3 ovarian,30.4 µM
same,TGI,OVCAR-4 ovarian,50.4 µM
same,TGI,OVCAR-5 ovarian,> 100 µM
same,TGI,OVCAR-8 ovarian,48.7 µM
same,TGI,PC-3 prostate,> 100 µM
same,TGI,RPMI-8226 leukemia,36.9 µM
same,TGI,SF-268 CNS,> 100 µM
same,TGI,SF-295 CNS,57.2 µM
same,TGI,SF-539 CNS,47.8 µM
same,TGI,SK-MEL-2 melanoma,30.4 µM
same,TGI,SK-MEL-28 melanoma,> 100 µM
same,TGI,SK-MEL-5 melanoma,61.8 µM
same,TGI,SN12C renal,> 100 µM
same,TGI,SNB-19 CNS,65.6 µM
same,TGI,SNB-75 CNS,> 100 µM
same,TGI,SR leukemia,47.6 µM
same,TGI,SW-620 colon,> 100 µM
same,TGI,T-47D breast,> 100 µM
same,TGI,TK-10 renal,> 100 µM
same,TGI,U251 CNS,33.3 µM
same,TGI,UACC-257 melanoma,> 100 µM
same,TGI,UO-31 renal,> 100 µM
